These results are taken from patent US20240317775A1, “H4 Antagonist Compounds” (HEPTARES THERAPEUTICS LIMITED, priority 2020, published 2024).

Holding throughout (format): cell-based
Data set [1] deals with T1, human H4 receptor (Homo sapiens, UniProt Q9H3N8).
T1 construct: expressed in transfected cells; host or cells: HEKf cells infected with baculovirus
The data set is described as follows: H4 Antagonist Functional cAMP Gi Assay. As to conditions: HEKf cells expressing human H4 receptor, functional antagonist pKb by Cheng-Prusoff vs histamine; for Kb: read-out: Human H4 cAMP fpKb (converted). The protocol: HEKf cells were infected overnight using baculovirus expressing the human H4 receptor, then centrifuged at 1,200 rpm for 5 min, frozen in cell freezing medium (Sigma) and stored at −150° C. On the day of assay, the cells were thawed and resuspended in HBSS with 500 nM IBMX to achieve a density of 1,500 cells/well. H4 ligands were prepared in DMSO and stamped by LabCyte ECHO acoustic dispensing at 25 nL in low volume plates. 10 μL/well cells were plated in the presence of 1 μM forskolin, subjected to centrifugation at 1,200 rpm for 1 min and incubated for 30 min prior to addition of Cisbio cAMP detection reagents to a total volume 20 μL/well. […] Following detection reagent addition and shaking at room temperature for 60 min, cAMP accumulation was measured using HTRF on a PheraStar plate reader. EC50 values were generated using a 4-parameter logistical fit equation to quantify agonist potencies. Functional antagonist affinity values were generated using the Cheng-Prusoff equation to calculate a pKb value using the antagonist assay data.

Data set [2] concerns the target T2, hERG (Homo sapiens, UniProt Q12809). The data set is described as follows: hERG pIC50 assay (QPatch automated patch clamp, CHO cells, 1, 3, 10 and 30 μM). As to conditions: CHO cells expressing hERG, 1-30 μM, ≤4.0 = fails to reach >40% block at 30 μM. The text has this:
(§1) Series resistance (4-15 MΩ) was compensated by >80%.

Data set [3] concerns the target T2, hERG. The data set is described as follows: hERG single-concentration assay (QPatch automated patch clamp, CHO cells, 30 μM). As to conditions: CHO cells stably expressing hERG.
From the text: as §1
On the technique in general: Block of hERG is tested as a sign of cardiac risk.

In data set [4] the target is T1, human H4 receptor. The data set is described as follows: H4 Antagonist Functional Dynamic Mass Redistribution Assay. As to conditions: HEKf cells expressing human H4 receptor, functional antagonist pKb by Cheng-Prusoff vs histamine EC80; for Kb: read-out: Human H4 DMR fpKb (converted). The protocol: HEKf cells were infected using baculovirus expressing the human H4 receptor, plated into fibronectin-coated EPIC plates at a density of 10,000 cells/well and incubated overnight at 37° C. The medium on cells was changed to 30 μL HBSS with 20 mM HEPES per well and 30 nL DMSO were added per well by LabCyte ECHO acoustic dispensing. Following 2 h equilibration at room temperature, 30 nL of H4 ligands prepared in DMSO were stamped by LabCyte ECHO acoustic dispensing into seeded EPIC plates and cellular dynamic mass redistribution was monitored using a Corning EPIC plate reader. Following 45 min measurement, 30 nL/well of histamine EC80 was added and monitored to obtain antagonist assay data. Maximum baseline-corrected responses in pm were used to generate concentration response curves. EC50 values were generated using a 4-parameter logistical fit equation to quantify agonist potencies. Functional antagonist affinity values were generated using the Cheng-Prusoff equation to calculate a pKb value using the antagonist assay data.

T2 sequence (Q12809 whole entry): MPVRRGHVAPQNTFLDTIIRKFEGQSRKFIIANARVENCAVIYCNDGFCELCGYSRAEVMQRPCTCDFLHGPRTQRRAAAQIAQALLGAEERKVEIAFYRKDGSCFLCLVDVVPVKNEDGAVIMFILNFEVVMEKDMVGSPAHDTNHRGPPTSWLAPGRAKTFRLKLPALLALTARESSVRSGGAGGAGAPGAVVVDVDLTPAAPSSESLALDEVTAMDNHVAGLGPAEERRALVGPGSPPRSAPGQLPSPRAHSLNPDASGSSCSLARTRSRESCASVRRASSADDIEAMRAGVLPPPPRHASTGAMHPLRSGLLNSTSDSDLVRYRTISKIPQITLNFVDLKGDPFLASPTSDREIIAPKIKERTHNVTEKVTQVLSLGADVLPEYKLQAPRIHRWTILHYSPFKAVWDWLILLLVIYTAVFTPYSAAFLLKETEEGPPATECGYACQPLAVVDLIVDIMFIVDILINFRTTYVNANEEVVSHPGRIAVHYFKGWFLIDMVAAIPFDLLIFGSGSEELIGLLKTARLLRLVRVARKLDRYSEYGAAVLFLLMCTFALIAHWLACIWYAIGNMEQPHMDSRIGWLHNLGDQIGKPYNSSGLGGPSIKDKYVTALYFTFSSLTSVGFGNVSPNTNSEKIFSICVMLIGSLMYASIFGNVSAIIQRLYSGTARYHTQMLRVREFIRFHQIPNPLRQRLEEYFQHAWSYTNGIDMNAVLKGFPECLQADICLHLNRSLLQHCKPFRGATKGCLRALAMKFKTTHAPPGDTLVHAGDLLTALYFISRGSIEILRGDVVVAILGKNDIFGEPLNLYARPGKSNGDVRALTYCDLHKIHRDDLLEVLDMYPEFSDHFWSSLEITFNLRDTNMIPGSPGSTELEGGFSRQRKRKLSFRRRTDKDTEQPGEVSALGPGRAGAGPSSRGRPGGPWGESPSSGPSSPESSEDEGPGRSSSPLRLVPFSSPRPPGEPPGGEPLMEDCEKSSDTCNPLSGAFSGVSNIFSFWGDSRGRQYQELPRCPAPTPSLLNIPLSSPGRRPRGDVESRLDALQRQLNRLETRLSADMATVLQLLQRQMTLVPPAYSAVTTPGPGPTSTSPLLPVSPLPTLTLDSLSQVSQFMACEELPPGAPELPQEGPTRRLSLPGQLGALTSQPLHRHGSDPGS
T1 sequence (Q9H3N8 whole entry): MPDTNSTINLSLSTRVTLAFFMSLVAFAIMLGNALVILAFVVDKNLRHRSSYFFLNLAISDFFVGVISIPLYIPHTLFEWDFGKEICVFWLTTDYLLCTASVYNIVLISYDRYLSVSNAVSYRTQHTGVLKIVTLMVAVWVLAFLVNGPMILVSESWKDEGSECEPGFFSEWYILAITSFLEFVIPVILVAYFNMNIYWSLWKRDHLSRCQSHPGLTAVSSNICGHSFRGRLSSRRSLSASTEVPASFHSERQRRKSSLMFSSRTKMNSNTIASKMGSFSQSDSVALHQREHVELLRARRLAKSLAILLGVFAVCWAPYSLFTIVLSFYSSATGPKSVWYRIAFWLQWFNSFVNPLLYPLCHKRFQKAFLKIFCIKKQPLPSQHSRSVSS

Usually IC50 stands for the midpoint of a concentration-inhibition curve. A word on the inhibition: it is the share of the control response that was lost under treatment. Read a high inhibition as strong suppression. With `CN[C@@H]1CCN(c2nc(N)nc3c2OC[C@@H](C(C)C)N3)C1` [Example 1-4, (R)-7-Isopropyl-4-((R)-3-(methylamino)pyrrolidin-1-yl)-7,8-dihydro-6H-pyrimido[5,4-b][1,4]oxazin-2-amine], the Kb on human H4 receptor [1] is 0.794 nM. In addition, the IC50 on hERG [2] is at least 100000 nM. This molecule also displayed an inhibition at 30 µM at hERG [3] of 20%.

As for `CC(C)[C@@H]1COc2c(nc(N)nc2N2CC[C@@H](N)C2)N1` [Example 2-2, (R)-4-((R)-3-Aminopyrrolidin-1-yl)-7-isopropyl-7,8-dihydro-6H-pyrimido[5,4-b][1,4]oxazin-2-amine], the Kb on human H4 receptor [1] is 0.631 nM. The IC50 against hERG [2] is at least 100000 nM. `CNC1CN(c2nc(N)nc3c2OC[C@@H](C(C)C)N3)C1` [Example 3-2, (R)-7-Isopropyl-4-(3-(methylamino)azetidin-1-yl)-7,8-dihydro-6H-pyrimido[5,4-b][1,4]oxazin-2-amine]: the Kb on human H4 receptor [1] is 1.26 nM. Moreover, the IC50 on hERG [2] is at least 100000 nM. In addition, 30 µM produced 26% inhibition against hERG [3]. With `CN[C@@H]1CCN(c2nc(N)nc3c2OCC[C@@H](C)N3)C1` [Example 11-2, (R)-8-Methyl-4-((R)-3-(methylamino)pyrrolidin-1-yl)-6,7,8,9-tetrahydropyrimido[5,4-b][1,4]oxazepin-2-amine], the Kb was 5.01 nM at human H4 receptor [4] and 2.51 nM on human H4 receptor [1]. On hERG [3], this molecule showed an inhibition at 30 µM of 13%. With `CN[C@@H]1CCN(c2nc(N)nc3c2OCC[C@H](C)N3)C1` [Example 11-3, (S)-8-Methyl-4-((R)-3-(methylamino)pyrrolidin-1-yl)-6,7,8,9-tetrahydropyrimido[5,4-b][1,4]oxazepin-2-amine], the Kb is 10 nM on human H4 receptor [4] and 31.6 nM on human H4 receptor [1]. On to `CN[C@@H]1CCN(c2nc(N)nc3c2OCC[C@@H](C(C)C)N3)C1` [Example 11-5, (S)-8-Isopropyl-4-((R)-3-(methylamino)pyrrolidin-1-yl)-6,7,8,9-tetrahydropyrimido[5,4-b][1,4]oxazepin-2-amine], for which the Kb at human H4 receptor [1] was 0.398 nM. For the same molecule, the IC50 against hERG [2] is at least 100000 nM. The molecule also yielded an inhibition at 30 µM against hERG [3] of 21%. In the case of `CN[C@@H]1CCN(c2nc(N)nc3c2OCC(C(C)C)CN3)C1` (stereo partly drawn) [Example 11-9, 7-Isopropyl-4-((R)-3-(methylamino)pyrrolidin-1-yl)-6,7,8,9-tetrahydropyrimido[5,4-b][1,4]oxazepin-2-amine], the Kb at human H4 receptor [4] is 50.1 nM; at human H4 receptor [1] it was 63.1 nM.

Take `CC(C)[C@@H]1CCOc2c(nc(N)nc2N2CC[C@@H](N)C2)N1` [Example 12-1, (S)-4-((R)-3-Aminopyrrolidin-1-yl)-8-isopropyl-6,7,8,9-tetrahydropyrimido[5,4-b][1,4]oxazepin-2-amine]: the results for the Kb on human H4 receptor [4] and at human H4 receptor [1] were 2.51 nM and 0.631 nM, respectively. The molecule also showed an IC50 against hERG [2] of at least 100000 nM. Consider `CN[C@@H]1CCN(c2ncnc3c2OCC[C@@H](C(C)C)N3)C1` [Example 14-1, (R)-1-((S)-8-Isopropyl-6,7,8,9-tetrahydropyrimido[5,4-b][1,4]oxazepin-4-yl)-N-methylpyrrolidin-3-amine], for which the Kb on human H4 receptor [4] was 0.794 nM; on human H4 receptor [1] it was 3.16 nM. 30 µM produced 41% inhibition at hERG [3]. Consider `CN[C@@H]1CCN(c2nc(N)nc3c2OCC2CCCC2N3)C1` (stereo partly drawn) [Example 17-1, 4-[(3R)-3-(methylamino)pyrrolidin-1-yl]-6a,7,8,9,9a, 10-hexahydro-6H-cyclopenta[e]pyrimido[5,4-b][1,4]oxazepin-2-amine], for which, at human H4 receptor [4], the Kb was 12.6 nM. At hERG [3], this molecule displayed an inhibition at 30 µM of 29%.

`Nc1nc2c(c(N3CC[C@@H](N)C3)n1)OCC1CCCC1N2` (stereo partly drawn) [Example 17-2, 4-[(3R)-3-aminopyrrolidin-1-yl]-6a, 7,8,9,9a, 10-hexahydro-6H-cyclopenta[e]pyrimido[5,4-b][1,4]oxazepin-2-amine]: the Kb at human H4 receptor [4] was 20 nM.

For the molecule `CNC1CN(c2nc(N)nc3c2OCC2CCCC2N3)C1` (centres unmarked) [Example 17-3, 4-[3-(methylamino)azetidin-1-yl]-6a, 7,8,9,9a, 10-hexahydro-6H-cyclopenta[e]pyrimido[5,4-b][1,4]oxazepin-2-amine], the Kb on human H4 receptor [4] is 31.6 nM. The inhibition at 30 µM at hERG [3] stood at 42%. Turning to `CN[C@@H]1CCN(c2nc(N)nc3c2OCC2(CCC2)N3)C1` [Example 17-4, 4′-[(3R)-3-(methylamino)pyrrolidin-1-yl]-6′H,8′H-spiro[cyclobutane-1,7′-pyrimido[5,4-b][1,4]oxazin]-2′-amine], the Kb on human H4 receptor [4] is 2 nM. In the case of `CN[C@@H]1CCN(c2nc(N)nc3c2OCC(C)(C)CN3)C1` [Example 17-5, 7,7-dimethyl-4-[(3R)-3-(methylamino)pyrrolidin-1-yl]-6,7,8,9-tetrahydropyrimido[5,4-b][1,4]oxazepin-2-amine], the Kb at human H4 receptor [4] was 200 nM.

Consider `CC[C@@H]1CCOc2c(nc(N)nc2N2CC(NC)C2)N1` [Example 17-6, 8-ethyl-4-[3-(methylamino)azetidin-1-yl]-6,7,8,9-tetrahydropyrimido[5,4-b][1,4]oxazepin-2-amine], for which the Kb at human H4 receptor [4] is 10 nM.

As for `CC[C@@H]1CCOc2c(nc(N)nc2N2CC[C@@H](N)C2)N1` [Example 17-7, 4-[(3R)-3-aminopyrrolidin-1-yl]-8-ethyl-6,7,8,9-tetrahydropyrimido[5,4-b][1,4]oxazepin-2-amine], at human H4 receptor [4], the Kb was 10 nM.

On to `CC[C@@H]1CCOc2c(nc(N)nc2N2C[C@H]3CCCN[C@H]3C2)N1` [Example 17-8, 8-ethyl-4-[(4aR,7aR)-octahydro-6H-pyrrolo[3,4-b]pyridin-6-yl]-6,7,8,9-tetrahydropyrimido[5,4-b][1,4]oxazepin-2-amine], for which, at human H4 receptor [4], the Kb was 15.8 nM. Same read-out and setting: next, `CCC1(C)CCOc2c(ncnc2N2CC[C@@H](NC)C2)N1` (stereo partly drawn) [Example 17-9, (3R)-1-(8-ethyl-8-methyl-6,7,8,9-tetrahydropyrimido[5,4-b][1,4]oxazepin-4-yl)-N-methylpyrrolidin-3-amine]: 39.8 nM. On to `CCC1(C)CCOc2c(nc(N)nc2N2CC[C@@H](NC)C2)N1` (stereo partly drawn) [Example 17-10, 8-ethyl-8-methyl-4-[(3R)-3-(methylamino)pyrrolidin-1-yl]-6,7,8,9-tetrahydropyrimido[5,4-b][1,4]oxazepin-2-amine], for which the Kb on human H4 receptor [4] was 10 nM. The same measure, in the same setting: the same measure for `CN[C@@H]1CCN(c2nc(N)nc3c2OCC2(CCCC2)N3)C1` [Example 17-11, 4′-[(3R)-3-(methylamino)pyrrolidin-1-yl]-6′H,8′H-spiro[cyclopentane-1,7′-pyrimido[5,4-b][1,4]oxazin]-2′-amine]: 7.94 nM; for `CN[C@@H]1CCN(c2ncnc3c2OCC2(CCCC2)N3)C1` [Example 17-12, (3R)—N-methyl-1-(6′H,8′H-spiro[cyclopentane-1,7′-pyrimido[5,4-b][1,4]oxazin]-4′-yl)pyrrolidin-3-amine]: 7.94 nM; for `CN[C@@H]1CCN(c2ncnc3c2OCC2(CC(F)(F)C2)N3)C1` [Example 17-13, (3R)-1-(3,3-difluoro-6′H,8′H-spiro[cyclobutane-1,7′-pyrimido[5,4-b][1,4]oxazin]-4′-yl)-N-methylpyrrolidin-3-amine]: 3.98 nM. On the same count and under the same terms, the same measure for `CC[C@]1(C)COc2c(nc(N)nc2N2CC[C@@H](NC)C2)N1` [Example 17-14, 7-ethyl-7-methyl-4-[(3R)-3-(methylamino)pyrrolidin-1-yl]-7,8-dihydro-6H-pyrimido[5,4-b][1,4]oxazin-2-amine]: 7.94 nM; for `CN[C@@H]1CCN(c2nc(N)nc3c2OCC2(CC(F)(F)C2)N3)C1` [Example 17-15, 3,3-difluoro-4′-[(3R)-3-(methylamino)pyrrolidin-1-yl]-6′H,8′H-spiro[cyclobutane-1,7′-pyrimido[5,4-b][1,4]oxazin]-2′-amine]: 7.94 nM. On hERG [2], `CN1CCN(C(=O)c2cc3cc(Cl)ccc3[nH]2)CC1` [JNJ-7777120, reference compound] gave an IC50 of 3980 nM. As for `CC(C)c1cc(N2CC[C@@H](N)C2)nc(N)n1` [JNJ-39758979, reference compound], at human H4 receptor [4], the “Human H4 DMR fpKb” value amounted to 8.5. Besides, the “Human H4 cAMP fpKb” value at human H4 receptor [1] worked out at 8.1.
